From patent publication US20250221998A1, “DISCOVERY OF COVALENT EGFR INHIBITOR THROUGH CYSTEINE 775” (Dana-Farber Cancer Institute, Inc., priority 2022, published 2025)

What was measured:
[1] = target: EGFR mutant L858R Ba/F3 cells (Homo sapiens, UniProt P00533, L858R, cells depend on it); assay: Ba/F3 cell proliferation (Cell Titer Glo), EGFR L858R; format: cell-based, murine; settings: 72 hours exposure, read-out: L858R BaF3 (μM), inhibitory activity against EGFR mutants
Text: (§1) The EGFR mutant L858R Ba/F3 cells have been previously described (Zhou, W., et al. Nature 462, 2009, 1070-1074). The EGFR C797S and C775S mutations were introduced via site directed mutagenesis using the Quick Change Site-Directed Mutagenesis kit into a vector containing EGFR L858R mutation (Stratagene; La Jolla, CA) according to the manufacturer's instructions. All constructs were confirmed by DNA sequencing. The constructs were then shuttled into the retroviral vector JP1540 by either using the Cre-recombination system (Agilent Technologies, Santa Clara, CA) or the In-fusion HD Cloning kit (Takara Bio USA, Inc.; Mountain view, CA). Ba/F3 cells were then infected with retrovirus per standard protocols, as described previously (Zhou, et al, Nature 2009). Stable clones were obtained by selection in puromycin (2 ug/ml). All BaF/3 mutant cells were maintained in RPMI 1640 (Cellgro; Mediatech Inc., Herndon, CA) supplemented with 10% FBS, 100 units/mL penicillin, 100 units/mL streptomycin.
(§2) Growth and inhibition of growth was assessed by the Cell Titer Glo assay (Promega, Madison, WI) and was performed according to the manufacturer's instructions. The Cell Titer Glo assay is a luminescence-based method used to determine the number of viable cells based on quantitation of the ATP present, which is directly proportional to the amount of metabolically active cells present. Ba/F3 cells of different EGFR genotypes were exposed to compounds for 72 hours and the number of cells used per experiment was determined empirically as has been previously established (Zhou, et al., Nature 2009). All experimental points were set up in triplicates in 384-well plates. […] The curves were fitted using a non-linear regression model with a sigmoidal dose response.
(§3) For inhibitory activity against EGFR mutants, the following designations are used: ≤0·25 μM=A, 0·25 μM˜0.5 μM=B, 0.5 μM˜2.5 μM=C, ≥2.5 μM=D.

[2] = target: EGFR L858R/C797S Ba/F3 cells (Homo sapiens, UniProt P00533, C797S/L858R, cells depend on it); assay: Ba/F3 cell proliferation (Cell Titer Glo), EGFR L858R/C797S; format: cell-based, murine; settings: 72 hours exposure, read-out: L858R/C797S (μM), inhibitory activity against EGFR mutants
Text: as §1, §2, §3

Sequence of EGFR L858R/C797S Ba/F3 cells (P00533 whole entry C797S/L858R): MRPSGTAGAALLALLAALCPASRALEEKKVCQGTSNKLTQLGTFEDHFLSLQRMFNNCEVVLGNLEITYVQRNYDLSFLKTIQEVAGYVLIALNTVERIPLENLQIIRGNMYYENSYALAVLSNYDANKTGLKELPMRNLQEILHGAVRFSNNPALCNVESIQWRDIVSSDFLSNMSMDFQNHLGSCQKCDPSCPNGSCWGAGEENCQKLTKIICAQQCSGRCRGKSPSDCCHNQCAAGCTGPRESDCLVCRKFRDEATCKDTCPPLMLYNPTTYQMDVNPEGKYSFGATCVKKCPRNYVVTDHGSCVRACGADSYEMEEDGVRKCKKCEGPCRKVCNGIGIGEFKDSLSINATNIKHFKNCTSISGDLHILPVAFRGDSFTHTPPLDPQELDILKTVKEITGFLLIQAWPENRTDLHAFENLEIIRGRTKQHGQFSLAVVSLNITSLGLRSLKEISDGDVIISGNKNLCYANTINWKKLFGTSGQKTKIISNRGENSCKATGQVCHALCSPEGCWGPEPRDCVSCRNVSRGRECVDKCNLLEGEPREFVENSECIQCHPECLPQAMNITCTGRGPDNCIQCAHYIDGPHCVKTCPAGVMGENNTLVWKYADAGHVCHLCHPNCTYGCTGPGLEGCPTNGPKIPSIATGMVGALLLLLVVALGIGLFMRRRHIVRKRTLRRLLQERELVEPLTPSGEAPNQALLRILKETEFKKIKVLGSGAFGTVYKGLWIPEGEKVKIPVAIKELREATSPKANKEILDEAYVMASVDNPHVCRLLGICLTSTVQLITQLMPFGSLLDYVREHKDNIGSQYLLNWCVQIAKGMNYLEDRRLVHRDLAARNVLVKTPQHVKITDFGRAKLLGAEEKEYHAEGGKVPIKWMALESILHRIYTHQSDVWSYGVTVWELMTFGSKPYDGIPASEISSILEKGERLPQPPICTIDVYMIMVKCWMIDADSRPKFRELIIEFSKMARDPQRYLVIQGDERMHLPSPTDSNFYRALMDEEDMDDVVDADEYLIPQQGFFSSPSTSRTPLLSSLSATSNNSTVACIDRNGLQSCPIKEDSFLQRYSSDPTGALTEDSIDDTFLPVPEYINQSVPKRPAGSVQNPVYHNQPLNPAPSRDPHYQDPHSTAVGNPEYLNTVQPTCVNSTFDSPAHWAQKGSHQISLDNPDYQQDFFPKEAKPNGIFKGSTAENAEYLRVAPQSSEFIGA
Sequence of EGFR mutant L858R Ba/F3 cells (P00533 whole entry L858R, the tested form may be a part): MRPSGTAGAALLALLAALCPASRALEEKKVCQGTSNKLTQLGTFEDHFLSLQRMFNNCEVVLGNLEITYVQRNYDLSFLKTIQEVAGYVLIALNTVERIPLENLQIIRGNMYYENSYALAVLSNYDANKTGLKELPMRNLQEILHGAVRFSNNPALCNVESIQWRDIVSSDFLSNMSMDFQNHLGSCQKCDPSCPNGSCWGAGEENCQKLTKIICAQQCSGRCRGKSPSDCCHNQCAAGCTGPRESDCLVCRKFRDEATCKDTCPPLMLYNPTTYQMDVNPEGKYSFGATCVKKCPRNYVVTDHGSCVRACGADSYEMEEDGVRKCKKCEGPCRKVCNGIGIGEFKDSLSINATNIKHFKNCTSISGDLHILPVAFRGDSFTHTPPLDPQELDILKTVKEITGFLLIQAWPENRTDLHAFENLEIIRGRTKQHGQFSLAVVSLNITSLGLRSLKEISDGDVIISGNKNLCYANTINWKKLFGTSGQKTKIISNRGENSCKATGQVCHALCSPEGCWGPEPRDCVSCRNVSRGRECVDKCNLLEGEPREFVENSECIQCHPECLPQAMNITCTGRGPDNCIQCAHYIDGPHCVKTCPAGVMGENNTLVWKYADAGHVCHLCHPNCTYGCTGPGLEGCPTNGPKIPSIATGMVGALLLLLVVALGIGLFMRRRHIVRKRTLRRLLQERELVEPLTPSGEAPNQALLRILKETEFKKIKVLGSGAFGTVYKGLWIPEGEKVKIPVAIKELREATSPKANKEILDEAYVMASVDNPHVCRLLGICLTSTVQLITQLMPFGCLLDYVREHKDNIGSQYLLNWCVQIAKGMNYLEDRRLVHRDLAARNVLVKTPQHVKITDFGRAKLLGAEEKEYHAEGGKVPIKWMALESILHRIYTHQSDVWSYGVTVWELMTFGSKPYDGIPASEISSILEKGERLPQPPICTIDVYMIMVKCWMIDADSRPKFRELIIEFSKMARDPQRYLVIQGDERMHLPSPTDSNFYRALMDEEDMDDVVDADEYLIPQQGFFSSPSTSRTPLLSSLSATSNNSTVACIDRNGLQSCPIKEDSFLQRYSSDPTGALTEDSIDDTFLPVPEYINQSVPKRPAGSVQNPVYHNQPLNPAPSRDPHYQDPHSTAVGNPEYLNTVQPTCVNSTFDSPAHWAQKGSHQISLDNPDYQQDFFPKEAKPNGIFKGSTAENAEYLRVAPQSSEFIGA

GI50 [1] | GI50 [2] | SMILES
0.25 to 0.5 µM | 0.5 to 2.5 µM | C=CC(=O)N1CCN(c2cc3cnc(Nc4ccc(OCCN(C)C)cc4)nc3n(C3COC3)c2=O)c2cccc(C)c21 [Compound 060, 2-[4-[2-(dimethylamino)ethoxy]anilino]-6-(5-methyl-4-prop-2-enoyl-2,3-dihydroquinoxalin-1-yl)-8-(oxetan-3-yl)pyrido[2,3-d]pyrimidin-7-one]
≤ 0.25 µM | ≤ 0.25 µM | C=CC(=O)N1CCN(c2cc3cnc(Nc4ccc(N5CCN(C)CC5)c(F)c4)nc3n(C)c2=O)c2cccc(C)c21 [Compound 040]
≤ 0.25 µM | ≤ 0.25 µM | C=CC(=O)N1CCN(c2cc3cnc(Nc4ccc(CS(=O)(=O)NC)cc4)nc3n(C)c2=O)c2cccc(C)c21 [Compound 034, N-methyl-1-[4-[[8-methyl-6-(5-methyl-4-prop-2-enoyl-2,3-dihydroquinoxalin-1-yl)-7-oxo-pyrido[2,3-d]pyrimidin-2-yl]amino]phenyl]methanesulfonamide]
≤ 0.25 µM | ≤ 0.25 µM | C=CC(=O)N1CCN(c2cc3cnc(N)nc3n([C@H]3CC[C@@](C)(O)CC3)c2=O)c2cccc(C)c21 [Compound 088, 6-(4-acryloyl-5-methyl-3,4-dihydroquinoxalin-1 (2H)-yl)-2-amino-8-((1s,4s)-4-hydroxy-4-methylcyclohexyl)pyrido[2,3-d]pyrimidin-7 (8H)-one]
≤ 0.25 µM | ≤ 0.25 µM | C=CC(=O)N1CCN(c2cc3cnc(Nc4ccc(OCCN(C)C)cc4)nc3n(C)c2=O)c2cccc(C)c21 [Compound 033, 2-[4-[2-(dimethylamino)ethoxy]anilino]-8-methyl-6-(5-methyl-4-prop-2-enoyl-2,3-dihydroquinoxalin-1-yl)pyrido[2,3-d]pyrimidin-7-one]
≤ 0.25 µM | ≤ 0.25 µM | C=CC(=O)N1CCN(c2cc3cnc(Nc4ccc(OCCN(C)C)cc4)nc3n(C3CC(O)C3)c2=O)c2cccc(OC)c21 (centres unmarked) [Compound 077]
≥ 2.5 µM | ≥ 2.5 µM | C=CC(=O)N1CC(C)N(c2cc3cnc(Nc4ccc(N5CCN(C)CC5)cc4)nc3n(C)c2=O)C(C)C1 (centres unmarked) [Compound 022, 6-(2,6-dimethyl-4-prop-2-enoyl-piperazin-1-yl)-8-methyl-2-[4-(4-methylpiperazin-1-yl)anilino]pyrido[2,3-d]pyrimidin-7-one]
≤ 0.25 µM | 0.25 to 0.5 µM | C=CC(=O)N1CCN(c2cc3cnc(N)nc3n(-c3cccc(OC)c3)c2=O)c2cccc(C)c21 [Compound 090]
0.25 to 0.5 µM | 0.5 to 2.5 µM | C=CC(=O)N1CCN(c2cc3cnc(N)nc3n(-c3ccc(CN4CCN(C)CC4)cc3)c2=O)c2cccc(C)c21 [Compound 103, 2-amino-8-[4-[(4-methylpiperazin-1-yl)methyl]phenyl]-6-(5-methyl-4-prop-2-enoyl-2,3-dihydroquinoxalin-1-yl)pyrido[2,3-d]pyrimidin-7-one]
≤ 0.25 µM | ≤ 0.25 µM | C=CC(=O)N1CCN(c2cc3cnc(Nc4ccc(N5CCN(C)CC5)cc4)nc3n(C)c2=O)c2cccc(C)c21 [Compound 019, 8-methyl-2-[4-(4-methylpiperazin-1-yl)anilino]-6-(5-methyl-4-prop-2-enoyl-2,3-dihydroquinoxalin-1-yl)pyrido[2,3-d]pyrimidin-7-one]
≤ 0.25 µM | 0.25 to 0.5 µM | C=CC(=O)N1CCN(c2cc3cnc(N)nc3n(-c3ccc(OC4COC4)cc3)c2=O)c2cccc(C)c21 [Compound 093, 2-amino-6-(5-methyl-4-prop-2-enoyl-2,3-dihydroquinoxalin-1-yl)-8-[4-(oxetan-3-yloxy)phenyl]pyrido[2,3-d]pyrimidin-7-one]
≤ 0.25 µM | 0.25 to 0.5 µM | C=CC(=O)N1CCN(c2cc3cnc(Nc4cnn(CCO)c4)nc3n(C)c2=O)c2cccc(OC)c21 [Compound 020, 2-[[1-(2-hydroxyethyl)pyrazol-4-yl]amino]-6-(5-methoxy-4-prop-2-enoyl-2,3-dihydroquinoxalin-1-yl)-8-methyl-pyrido[2,3-d]pyrimidin-7-one]
0.5 to 2.5 µM | 0.5 to 2.5 µM | CCC(=O)N1CCN(c2cc3cnc(Nc4ccc(N5CCN(C)CC5)cc4)nc3n(C)c2=O)c2cccc(C)c21 [Compound 026]
≤ 0.25 µM | 0.5 to 2.5 µM | C=CC(=O)N1CCN(c2cc3cnc(N)nc3n(-c3ccc(OCCN(C)C)nc3)c2=O)c2cccc(C)c21 [Compound 079]
≤ 0.25 µM | ≤ 0.25 µM | C=CC(=O)N1CCN(c2cc3cnc(NC4CC4)nc3n(C3CCN(C)CC3)c2=O)c2cccc(C)c21 [Compound 105, 2-(cyclopropylamino)-8-(1-methyl-4-piperidyl)-6-(5-methyl-4-prop-2-enoyl-2,3-dihydroquinoxalin-1-yl)pyrido[2,3-d]pyrimidin-7-one]
≤ 0.25 µM | ≤ 0.25 µM | C=CC(=O)N1CCN(c2cc3cnc(Nc4cccc(N5CCS(=O)(=O)CC5)c4)nc3n(C)c2=O)c2cccc(C)c21 [Compound 045]
≤ 0.25 µM | ≤ 0.25 µM | C=CC(=O)N1CCN(c2cc3cnc(N)nc3n([C@H]3CC[C@H](OC)CC3)c2=O)c2cccc(C)c21 [Compound 086, 2-amino-8-(4-methoxycyclohexyl)-6-(5-methyl-4-prop-2-enoyl-2,3-dihydroquinoxalin-1-yl)pyrido[2,3-d]pyrimidin-7-one]
≤ 0.25 µM | ≤ 0.25 µM | C=CC(=O)N1CCN(c2cc3cnc(Nc4ccc(N5CCN(C)CC5)cc4F)nc3n(C)c2=O)c2cccc(C)c21 [Compound 036]
≤ 0.25 µM | ≤ 0.25 µM | C=CC(=O)N1CCN(c2cc3cnc(Nc4ccc(OCCN(C)C)cc4)nc3n([C@H]3C[C@](C)(O)C3)c2=O)c2cccc(C)c21 [Compound 057, 2-[4-[2-(dimethylamino)ethoxy]anilino]-8-((1r,3r)-3-hydroxy-3-methyl-cyclobutyl)-6-(5-methyl-4-prop-2-enoyl-2,3-dihydroquinoxalin-1-yl)pyrido[2,3-d]pyrimidin-7-one]
≤ 0.25 µM | ≤ 0.25 µM | C=CC(=O)N1CCN(c2cc3cnc(Nc4ccc(OCCN(C)C)cc4)nc3n([C@H]3C[C@H](O)C3)c2=O)c2cccc(C)c21 [Compound 044]
≥ 2.5 µM | ≥ 2.5 µM | C=CC(=O)N1CCN(c2cc3cnc(Nc4ccc(N5CCN(C)CC5)cc4)nc3n(C)c2=O)C2CC21 (centres unmarked) [Compound 024, 8-methyl-2-[4-(4-methylpiperazin-1-yl)anilino]-6-(5-prop-2-enoyl-2,5-diazabicyclo[4.1.0]heptan-2-yl)pyrido[2,3-d]pyrimidin-7-one]
≤ 0.25 µM | ≤ 0.25 µM | C=CC(=O)N1CCN(c2cc3cnc(Nc4ccnc(OC)c4)nc3n(C)c2=O)c2cccc(C)c21 [Compound 062]
≤ 0.25 µM | ≤ 0.25 µM | C=CC(=O)N1CCN(c2cc3cnc(NC4CCC4)nc3n(-c3ccc(N(C)CCN(C)C)cc3)c2=O)c2cccc(C)c21 [Compound 102, 2-(cyclobutylamino)-8-[4-[2-(dimethylamino)ethyl-methyl-amino]phenyl]-6-(5-methyl-4-prop-2-enoyl-2,3-dihydroquinoxalin-1-yl)pyrido[2,3-d]pyrimidin-7-one]
≥ 2.5 µM | ≥ 2.5 µM | C=CC(=O)NC1CCCN(c2cc3cnc(Nc4cnn(CCO)c4)nc3n(C)c2=O)C1 (centres unmarked) [Compound 015, N-[1-[2-[[1-(2-hydroxyethyl)pyrazol-4-yl]amino]-8-methyl-7-oxo-pyrido[2,3-d]pyrimidin-6-yl]-3-piperidyl]prop-2-enamide]
≤ 0.25 µM | ≤ 0.25 µM | C=CC(=O)N1CCN(c2cc3cnc(N)nc3n(-c3ccc(OCCN(C)C)cc3)c2=O)c2cccc(C)c21 [Compound 080, 2-amino-8-[4-[2-(dimethylamino)ethoxy]phenyl]-6-(5-methyl-4-prop-2-enoyl-2,3-dihydroquinoxalin-1-yl)pyrido[2,3-d]pyrimidin-7-one]
≤ 0.25 µM | 0.25 to 0.5 µM | C=C(F)C(=O)N1CCN(c2cc3cnc(Nc4ccc(N5CCN(C)CC5)cc4)nc3n(C)c2=O)c2cccc(C)c21 [Compound 028]
≤ 0.25 µM | ≤ 0.25 µM | C=CC(=O)N1CCN(c2cc3cnc(NC)nc3n(-c3ccc(OCCN(C)C)cc3)c2=O)c2cccc(C)c21 [Compound 081, 8-[4-[2-(dimethylamino)ethoxy]phenyl]-2-(methylamino)-6-(5-methyl-4-prop-2-enoyl-2,3-dihydroquinoxalin-1-yl)pyrido[2,3-d]pyrimidin-7-one]
≤ 0.25 µM | ≤ 0.25 µM | C=CC(=O)N1CCN(c2cc3cnc(NC4CC4)nc3n(-c3ccc(N(C)CCOC)cc3)c2=O)c2cccc(C)c21 [Compound 100, 2-(cyclopropylamino)-8-[4-[2-methoxyethyl(methyl)amino]phenyl]-6-(5-methyl-4-prop-2-enoyl-2,3-dihydroquinoxalin-1-yl)pyrido[2,3-d]pyrimidin-7-one]
